# Assay results as given in PMC5674183 (2017).
# Tests used:
# [1] = test system: dual labeled BCL-2-C (DNA, i motif) CAGCCCCGCTCCCGCCCCCTTCCTCCCGCGCCCGCCCCT; assay: FRET melting; settings: K+ (60 mM K-cacodylate); pH 6 (folded at pH 4.8); 1 μM compound, 100 nM DNA
# [2] = test system: c-MYC-C (DNA, i motif) TCCCCACCTTCCCCACCCTCCCCACCCTCCCCA; assay: thiazole orange displacement (fluorescence); settings: K+ (60 mM K-cacodylate); pH 6 (folded at pH 4.8); 0.5 μM thiazole orange displaced, 0.25 μM DNA
# [3] = test system: 5′-TAMRA-ds DNA (DNA, hairpin, hexaethylene glycol (HEG) linker between 10 and 11) TATAGCTATATATAGCTATA; assay: fluorescence quenching titration; settings: K+ (60 mM K-cacodylate); pH 7, 25 °C, 250 nM DNA; up to 30 μM
# [4] = test system: 5′-TAMRA-BCL-2-G (DNA, G4) AGGGGCGGGCGCGGGAGGAAGGGGGCGGGAGCGGGGCGT; assay: fluorescence quenching titration; settings: K+ (60 mM K-cacodylate); pH 7, 25 °C, 250 nM DNA
# [5] = test system: dual labeled ds DNA (DNA, hairpin, hexaethylene glycol (HEG) linker between 10 and 11) TATAGCTATATATAGCTATA; assay: FRET melting; settings: K+ (60 mM K-cacodylate), pH 6 (Table 1; also pH 7), 1 μM compound, 100 nM DNA
# [6] = test system: c-MYC-G (DNA, G4) TGGGGAGGGTGGGGAGGGTGGGGAAGGTGGGGA; assay: thiazole orange displacement (fluorescence); settings: K+ (60 mM K-cacodylate); pH 7; 0.5 μM thiazole orange displaced, 0.25 μM DNA
# [7] = test system: 3′-TAMRA-c-MYC-C (DNA, i motif) TCCCCACCTTCCCCACCCTCCCCACCCTCCCCA; assay: fluorescence quenching titration; settings: K+ (60 mM K-cacodylate); pH 6 (folded at pH 4.8), 25 °C, 250 nM DNA
# [8] = test system: 3′-TAMRA-c-MYC-G (DNA, G4) TGGGGAGGGTGGGGAGGGTGGGGAAGGTGGGGA; assay: fluorescence quenching titration; settings: K+ (60 mM K-cacodylate); pH 7, 25 °C, 250 nM DNA
# [9] = test system: h-TELO-C (DNA, i motif) TAACCCTAACCCTAACCCTAACCC; assay: thiazole orange displacement (fluorescence); settings: K+ (60 mM K-cacodylate); pH 6; thiazole orange displaced, 0.25 μM DNA
# [10] = test system: 3′-TAMRA-BCL-2-C (DNA, i motif) CAGCCCCGCTCCCGCCCCCTTCCTCCCGCGCCCGCCCCT; assay: fluorescence quenching titration; settings: K+ (60 mM K-cacodylate); pH 6 (folded at pH 4.8), 25 °C, 250 nM DNA
# [11] = test system: h-TELO-G (DNA, G4) GGGTTAGGGTTAGGGTTAGGG; assay: thiazole orange displacement (fluorescence); settings: K+ (60 mM K-cacodylate); pH 7; thiazole orange displaced, 0.25 μM DNA
# [12] = test system: 5′-TAMRA-c-MYC-C (DNA, i motif) TCCCCACCTTCCCCACCCTCCCCACCCTCCCCA; assay: fluorescence quenching titration; settings: K+ (60 mM K-cacodylate); pH 6 (folded at pH 4.8), 25 °C, 250 nM DNA
# [13] = test system: 5′-TAMRA-BCL-2-C (DNA, i motif) CAGCCCCGCTCCCGCCCCCTTCCTCCCGCGCCCGCCCCT; assay: fluorescence quenching titration; settings: K+ (60 mM K-cacodylate); pH 6 (folded at pH 4.8), 25 °C, 250 nM DNA
# [14] = test system: BCL-2-C (DNA, i motif) CAGCCCCGCTCCCGCCCCCTTCCTCCCGCGCCCGCCCCT; assay: thiazole orange displacement (fluorescence); settings: K+ (60 mM K-cacodylate); pH 6 (folded at pH 4.8); 0.5 μM thiazole orange displaced, 0.25 μM DNA
# [15] = test system: 3′-TAMRA-BCL-2-G (DNA, G4) AGGGGCGGGCGCGGGAGGAAGGGGGCGGGAGCGGGGCGT; assay: fluorescence quenching titration; settings: K+ (60 mM K-cacodylate); pH 7, 25 °C, 250 nM DNA
# [16] = test system: 5′-TAMRA-c-MYC-G (DNA, G4) TGGGGAGGGTGGGGAGGGTGGGGAAGGTGGGGA; assay: fluorescence quenching titration; settings: K+ (60 mM K-cacodylate); pH 7, 25 °C, 250 nM DNA
# [17] = test system: BCL-2-G (DNA, G4) AGGGGCGGGCGCGGGAGGAAGGGGGCGGGAGCGGGGCGT; assay: thiazole orange displacement (fluorescence); settings: K+ (60 mM K-cacodylate); pH 7; 0.5 μM thiazole orange displaced, 0.25 μM DNA
# [18] = test system: dual labeled c-MYC-G (DNA, G4) TGGGGAGGGTGGGGAGGGTGGGGAAGGTGGGGA; assay: FRET melting; settings: K+ (60 mM K-cacodylate); pH 7; 1 μM compound, 100 nM DNA
ΔT m [1] [°C],DC50 [2] [% μM],K d [3] [µM],K d [4] [% μM],ΔT m ([5]; no shift up to 10 μM) [°C],DC50 [6] [% μM],K d [7] [% μM],K d [8] [% μM],DC50 [9],K d [10] [% μM],DC50 [11] [% μM],K d [12] [% μM],K d [13] [% μM],DC50 [14] [% μM],K d [15] [% μM],K d [16] [% μM],DC50 [17] [% μM],ΔT m ([5]; no shift up to 15 μM) [°C],ΔT m [18] [°C],SMILES
29 ± 1,2.7 ± 5,> 25,7.2 ± 5,0.94 ± 1,8.5 ± 5,5.9 ± 5,16.7 ± 5,4 ± 5% μM,2.1 ± 5,9.8 ± 5,2.4 ± 5,0.3 ± 5,0.9 ± 5,11.5 ± 5,12.5 ± 5,5.7 ± 5,,,CN(C)CCCOc1cc(C(=O)NCc2cn(-c3ccc(NC(=O)[C@@H]4CCCN4)cc3)nn2)nc(C(=O)NCc2cn(-c3ccc(NC(=O)[C@@H]4CCCN4)cc3)nn2)c1
,6.8 ± 5,> 25,1.9 ± 5,,1.3 ± 5,15.1 ± 5,4.1 ± 5,> 15 µM,10.5 ± 5,4.7 ± 5,9.5 ± 5,5.8 ± 5,8.2 ± 5,4.5 ± 5,1.3 ± 5,2.4 ± 5,1.1 ± 1,16 ± 1,CN(C)CCCOc1cc(C(=O)NCc2cn(-c3cccc(NC(=O)[C@@H]4CCCN4)c3)nn2)nc(C(=O)NCc2cn(-c3cccc(NC(=O)[C@@H]4CCCN4)c3)nn2)c1
,8.4 ± 5,,,,10.2 ± 5,,,10 ± 5% μM,,8.4 ± 5,,,7.9 ± 5,,,9 ± 5,,,O=C(NCc1cn(-c2ccc(NC(=O)[C@@H]3CCCN3)cc2)nn1)c1cccc(C(=O)NCc2cn(-c3ccc(NC(=O)[C@@H]4CCCN4)cc3)nn2)n1
